Consider seven compounds from US11186594B2, “Podophyllotoxin derivatives and their use” (California Pacific Medical Center, priority 2015, dated 2021).

pIC50: −log10 of the molar value. Bounds are passed on as bounds.

In general, pIC50 refers to the IC50 on a negative log10 scale, so that one unit is a factor of ten. A high value points to a low IC50. The term TGI denotes the reduction of tumour growth relative to the control group.

Data set [1] relates to HCT116 Human Colon Cancer Cells. The data set is described as follows: Colony formation assay, HCT116. Format: cell-based. The following applies: 50% inhibition of colony formation; 72 hours with drug; colonies counted after 7 days. How it is done: (§1) Cancer cells were plated in 60 mm Petri dishes containing 2.7 ml of medium (modified McCoy's 5a medium containing 10% fetal bovine serum and 100 units/ml penicillin and 100 ug/ml streptomycin). The cells were incubated in a CO2 incubator at 37 degree C. for 5 hours for attachment to the bottom of Petri dishes. Drugs were made up fresh in medium at ten times the final concentration, and then 0.3 ml of this stock solution was added to the 2.7 ml of medium in the dish. The cells were then incubated with drugs for 72 hours at 37 degree C. At the end of incubation the drug-containing media were decanted, the dishes were rinsed with 4 ml of Hank's Balance Salt Solution (HBSS), 5 ml of fresh medium was added, and the dishes were returned to the incubator for colony formation. The cell colonies were counted using colony counter after incubation for 7 days (HCT116 cell line), 14 days (VM46 cell line) and 15 days (H23 cell line). Cell survival (%) was calculated from 3 repeated dishes for each drug concentration and the mean values of IC50 (the drug concentration producing 50% inhibition of colony formation) were determined for each tested compound.

For data set [2], the system named is VM46 Human Colon Cancer Cells Overexpressing Multi-drug Resistant Gene 1. The data set is described as follows: Colony formation assay, VM46. Format: cell-based. The following applies: 50% inhibition of colony formation; 72 hours with drug; colonies counted after 14 days. The procedure: as §1
Data set [3] has as its system H23 Human Non-small Cell Lung Cancer Cells. The data set can be described thus: Colony formation assay, H23. Format: cell-based. The following applies: 50% inhibition of colony formation; 72 hours with drug; colonies counted after 15 days. How it is done:
as §1

A short description of data set [4]: Toxicity study (MTD) in normal mice. It is filed as in vivo, C3H female normal mice. The following applies: single i.p. injection, mice checked daily for 40 days (MTD40). The procedure:
In the toxicity studies, 2 C3H female normal mice were dosed with compounds N1-4 (N1, N2, N3, and N4) at low and moderate doses of 40 and 100 mg/kg. Since no severe and irreversible toxicity occurred at these doses, a new pair of animals was initiated at 120 mg/kg which was 1.2 times higher than 100 mg/kg. Sequential dosages (ie. 2 mice for each drug dose) were increased by a factor of 1.2-1.5 until irreversible toxicity was observed (animal became emaciated; animal underwent rapid weight loss (cachexia) (20%) within several (2-4) days)(euthanasia was required) occurred. Then another pair of animals was initiated at the highest nontoxic dosage, and successive dosages were increased by a factor of 1.15. […] Six mice were dosed at each dosage. If no irreversible toxicity occurred at the lower dosage and at least one with irreversible toxicity at the higher dose, then the lower dose was considered to be the MTD. HCL salts of N1-4 were formulated in a solution of ethanol:Cremophor EL:0.2M NaAc:saline (5:5:10:80) with a final pH of 5.0-5.5. N1-4 bases were formulated in a solution of ethanol: Cremophor EL:saline (5:5:90). All compounds were administered to C3H female normal mice by a single i.p. injection at a volume of 0.5 ml/20 g mouse. Drug toxicity was evaluated on mice checked daily for 40 days. The toxicity parameters reported were the MTD40. […] At the end of experiment, all mice were euthanized.

For data set [5], the system named is HCT116 human colon cancer xenograft. The data set can be described thus: Subcutaneous HCT116 human colon cancer xenograft model. Format: in vivo, Mus Musculus (BALB/c nude). The procedure: Each mouse was inoculated subcutaneously with 5×10^6 HCT116 tumor cells in 0.1 ml PBS for tumor development. Treatments were started when the tumor volume reached 100 mm^3. […] Body weight and tumor volume were measured twice a week.
(In xenograft studies the graft and the host belong to different species.)

A further data set can be described thus: Rat MTD study. It is filed as in vivo, Sprague-Dawley rats. How it is done: In the rat MTD study, Sprague-Dawley rats were dosed with 801 HCl at a concentration of 6 mg/ml via intravenous infusion or slow intravenous injection. The MTD of 801 in normal rats was 120 mg/kg/day. In the 7-day repeating dose study, the rats were administered with […] via BID slow IV injection for 7 days.

Data set [6] concerns COLO205 human colon cancer xenograft. The data set is described as follows: Subcutaneous COLO205 human colon cancer xenograft model. It is filed as in vivo, Mus Musculus (BALB/c nude). The following applies: 125 mg/kg i.p. q3d×3, day 29. The procedure: Each mouse was inoculated subcutaneously with 5×10^6 COLO205 tumor cells in 0.1 ml PBS for tumor development. Treatments were started when the tumor volume reached 120 mm^3. […] Body weight and tumor volume were measured twice a week.

Data set [7] in a line: Toxicity studies (MTD) in Cynomolgus monkeys. It is filed as in vivo.
The subject of data set [8] is K562 human chronic myeloid leukemia xenograft. The data set can be described thus: Subcutaneous K562 human chronic myeloid leukemia xenograft model. Particulars: 300 mg/kg ip Days 8, 11, 14.

`CCc1c2c(nc3ccc(O)c(CN(C)C)c13)-c1cc3c(c(=O)n1C2)COC(=O)C3(CC)OC(=O)COc1ccc(C(=O)OC2c3cc4c(cc3C(c3cc(OC)c(OC)c(OC)c3)C3C(=O)OCC23)OCO4)cc1` (stereo not drawn) [Compound N4]: the figures for the pIC50 in data set [1], in [2] and in [3] were 8.18, 8.30 and 7.89, respectively. Also, in data set [4], the “MTD Values” was determined as 250 mg/kg.
In the case of `CCc1c2c(nc3ccc(OC(=O)N4CCC(N5CCCCC5)CC4)cc13)-c1cc3c(c(=O)n1C2)COC(=O)C3(CC)OC(=O)COc1ccc(C(=O)OC2c3cc4c(cc3C(c3cc(OC)c(OC)c(OC)c3)C3C(=O)OCC23)OCO4)cc1.Cl` (stereo not drawn) [N3 HCL Salt], the “MTD Values” in [4] is reported as 144 mg/kg.
`CCc1c2c(nc3ccc(OC(=O)N4CCC(N5CCCCC5)CC4)cc13)-c1cc3c(c(=O)n1C2)COC(=O)[C@]3(O)CC` [Irinotecan, reference compound] registered a body weight loss in data set [5] (during the treatment period, doses of the study groups) of 8%.
With `CCC1(OC(=O)COc2ccc(C(=O)OC3c4cc5c(cc4C(c4cc(OC)c(OC)c(OC)c4)C4C(=O)OCC34)OCO5)cc2)C(=O)OCc2c1cc1n(c2=O)Cc2cc3c(CN(C)C)c(O)ccc3nc2-1.Cl` (stereo not drawn) [N1 HCL Salt], the “MTD Values” in data set [4] worked out at 120 mg/kg.
Still for that read-out and setting: then `CCc1c2c(nc3ccc(O)c(CN(C)C)c13)-c1cc3c(c(=O)n1C2)COC(=O)C3(CC)OC(=O)COc1ccc(C(=O)OC2c3cc4c(cc3C(c3cc(OC)c(OC)c(OC)c3)C3C(=O)OCC23)OCO4)cc1.Cl` (stereo not drawn) [N4 HCL Salt], with 180 mg/kg.
In the case of `CC[C@@]1(OC(=O)COc2ccc(C(=O)O[C@H]3c4cc5c(cc4[C@@H](c4cc(OC)c(OC)c(OC)c4)[C@H]4C(=O)OC[C@@H]43)OCO5)cc2)C(=O)OCc2c1cc1n(c2=O)Cc2cc3cc(OC(=O)N4CCC(N5CCCCC5)CC4)ccc3nc2-1` [N2 (801)], the pIC50 was below 6.30 in data set [1], around 6.28 in data set [2] and 6.34 in [3]. Further, the “MTD Values” in [4] was 300 mg/kg. Further, the “MTD for repeating dosing” value in “Rat MTD study” (7-day repeating dose, BID slow IV injection) is recorded as 60 mg/kg/day.
For `CC[C@@]1(OC(=O)COc2ccc(C(=O)O[C@H]3c4cc5c(cc4[C@@H](c4cc(OC)c(OC)c(OC)c4)[C@H]4C(=O)OC[C@@H]43)OCO5)cc2)C(=O)OCc2c1cc1n(c2=O)Cc2cc3cc(OC(=O)N4CCC(N5CCCCC5)CC4)ccc3nc2-1.Cl` [Compound 801-HCl], the “MTD Values” in data set [4] turned out to be 300 mg/kg. For the same compound, the TGI came out at 70% in data set [6] and 93% in [5] (125 mg/kg i.p. q3d×3, day 29). In addition, in data set [7] (5-day repeat dose, intravenous infusion), the “MTD for repeating dosing” value is on record as 30 mg/kg/day. Also, the MTD in data set [7] (intravenous infusion twice daily with a 5-hour interval) worked out at 60 mg/kg/day; in the data set “Rat MTD study” (6 mg/ml via intravenous infusion or slow intravenous injection, normal rats) it was 120 mg/kg/day. Further, the “TGI (Day 25)” value in data set [8] was 98%. For the same compound, the “Mean Tumor Volume” value was determined as 159 ± 6 mm^3 in [8] (Day 8 after tumor inoculation); 221 ± 27 mm^3 in data set [8] (Day 11); 164 ± 6 mm^3 in [8] (Day 14); 47 ± 7 mm^3 in data set [8] (Day 18); 39 ± 6 mm^3 in data set [8] (Day 21); 74 ± 12 mm^3 in data set [8] (Day 25). Further, the “Mean Tumor Volume” value in [8] (Day 25, listed as 801-HCI) is given as 74 ± 2 mm^3; in data set [8] (Day 28) it was 95 ± 19 mm^3. For the same compound, in data set [8] (complete remission by Day 21), the “CR ratio (ratio of complete regression)” value was 3/8. For the same compound, in data set [8] (next day after the 2nd dosing), the “maximum BW loss” value was 7.7%.
